Target: T1, human PAH with the R408W mutation (A375 R408W cells) (Homo sapiens, UniProt P00439, R408W)
T1 construct: expressed in transfected cells
T1 sequence (P00439 1-452 R408W): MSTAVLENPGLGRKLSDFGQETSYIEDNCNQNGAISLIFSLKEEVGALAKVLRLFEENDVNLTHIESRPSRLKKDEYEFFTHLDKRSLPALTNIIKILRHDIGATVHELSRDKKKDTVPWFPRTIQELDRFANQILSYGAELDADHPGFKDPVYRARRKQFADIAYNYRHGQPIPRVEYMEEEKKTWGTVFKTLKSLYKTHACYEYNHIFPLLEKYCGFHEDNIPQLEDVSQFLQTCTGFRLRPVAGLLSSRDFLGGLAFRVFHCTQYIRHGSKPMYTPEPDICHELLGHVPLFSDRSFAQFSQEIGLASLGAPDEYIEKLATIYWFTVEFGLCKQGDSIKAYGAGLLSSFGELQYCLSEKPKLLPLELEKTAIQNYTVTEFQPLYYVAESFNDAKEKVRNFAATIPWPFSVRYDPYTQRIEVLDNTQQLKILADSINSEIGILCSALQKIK
Assay: Cell Based Phenylalanine Flux Assay
Settings: A375 R408W cells; 24 hrs with compound, then 20 μM sepiapterin and 800 μM 13C9,15N-Phenylalanine for 4 hours; 13C-Tyrosine by LC-MS; average where tested multiple times
Summary of the method: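 AC50 is derived from LC-MS of 13C-tyrosine in the media after a 4 h pulse of 800 μM 13C9,15N-phenylalanine plus 20 μM sepiapterin. The A375 R408W PAH cells had received duplicate 10-point, 2-fold compound dilutions (0.5% DMSO) for 24 h beforehand.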

AC50 [nM]	Compound
≤ 500	Cc1ccc(F)c2oc([C@@H]3c4nc[nH]c4CCN3C(=O)c3ocnc3C(F)F)nc12 [Example 898, (S)-(4-(difluoromethyl)oxazol-5-yl)(4-(7-fluoro-4-methylbenzo[d]oxazol-2-yl)-6,7-dihydro-1H-imidazo[4,5-c]pyridin-5(4H)-yl)methanone]
≤ 500	[2H][C@@]1(c2nc3cccc(F)c3o2)c2nc[nH]c2CCN1C(=O)c1ocnc1C(F)F [Example 899, (S)-(4-(difluoromethyl)oxazol-5-yl)(4-deuterium-4-(7-fluorobenzo[d]oxazol-2-yl)-6,7-dihydro-1H-imidazo[4,5-c]pyridin-5(4H)-yl)methanone]
500 to 1000	O=C(c1ocnc1C(F)F)N1CCc2[nH]cnc2[C@@H]1c1nc2cccc(F)c2o1 [Example 900, (R)-(4-(difluoromethyl)oxazol-5-yl)(4-deuterium-4-(7-fluorobenzo[d]oxazol-2-yl)-6,7-dihydro-1H-imidazo[4,5-c]pyridin-5(4H)-yl)methanone]
≤ 500	[2H][C@@]1(c2nc3cc(F)ccc3o2)c2nc[nH]c2CCN1C(=O)c1oc(C(C)(C)O)nc1C(F)F [Example 905]
≤ 500	O=C(c1ocnc1C(F)F)N1CC2(CC2)c2[nH]cnc2[C@H]1c1nc2cccc(F)c2o1 [Example 911, (S)-(4-(difluoromethyl)oxazol-5-yl)(4′-(7-fluorobenzo[d]oxazol-2-yl)spiro[cyclopropane-1,7′-imidazo[4,5-c]pyridin]-5′(1′H,4′H,6′H)-yl)methanone]
500 to 1000	O=C(c1ocnc1C(F)F)N1CC2(CC2)c2[nH]cnc2[C@@H]1c1nc2cccc(F)c2o1 [Example 912, (R)-(4-(difluoromethyl)oxazol-5-yl)(4′-(7-fluorobenzo[d]oxazol-2-yl)spiro[cyclopropane-1,7′-imidazo[4,5-c]pyridin]-5′(1′H,4′H,6′H)-yl)methanone]
1000 to 5000	O=C(N1CCc2[nH]cnc2[C@H]1c1nc2cc(F)ccc2o1)C1(c2cnco2)CC1 [Example 917, (S)-(4-(5-fluorobenzo[d]oxazol-2-yl)-6,7-dihydro-1H-imidazo[4,5-c]pyridin-5(4H)-yl)(1-(oxazol-5-yl)cyclopropyl)methanone]
≤ 500	Cc1cccc2nc([C@@H]3c4nc[nH]c4CCN3C(=O)c3ccnn3C(F)F)oc12 [Example 919, (S)-(1-(difluoromethyl)-1H-pyrazol-5-yl)(4-(7-methylbenzo[d]oxazol-2-yl)-6,7-dihydro-1H-imidazo[4,5-c]pyridin-5(4H)-yl)methanone]
1000 to 5000	O=C(c1ocnc1C(F)F)N1Cc2[nH]cnc2[C@H]1c1nc2ccccc2o1 [Example 921, (S)-(4-(benzo[d]oxazol-2-yl)-4,6-dihydropyrrolo[3,4-d]imidazol-5(1H)-yl)(4-(difluoromethyl)oxazol-5-yl)methanone]
1000 to 5000	O=C(c1ocnc1C(F)F)N1Cc2[nH]cnc2[C@@H]1c1nc2ccccc2o1 [Example 922, (R)-(4-(benzo[d]oxazol-2-yl)-4,6-dihydropyrrolo[3,4-d]imidazol-5(1H)-yl)(4-(difluoromethyl)oxazol-5-yl)methanone]
1000 to 5000	Cc1ncoc1C(=O)N1Cc2[nH]cnc2[C@H]1c1nc2ccccc2o1 [Example 941, (S)-(4-(benzo[d]oxazol-2-yl)-4,6-dihydropyrrolo[3,4-d]imidazol-5(1H)-yl)(4-methyloxazol-5-yl)methanone]

The next lines start with the molecule.

Compound	AC50 [nM]
O=C(c1cnn2cc(N3CCC(O)CC3)ccc12)N1CCc2[nH]cnc2[C@H]1c1nc2c(F)ccc(F)c2o1 [Example 895, (S)-(4-(4,7-difluorobenzo[d]oxazol-2-yl)-6,7-dihydro-1H-imidazo[4,5-c]pyridin-5(4H)-yl)(6-(4-hydroxypiperidin-1-yl)pyrazolo[1,5-a]pyridin-3-yl)methanone]	1000 to 5000
O=C(c1cnn2cc(N3CCC(O)CC3)ccc12)N1CCc2[nH]cnc2[C@@H]1c1nc2c(F)ccc(F)c2o1 [Example 896, (R)-(4-(4,7-difluorobenzo[d]oxazol-2-yl)-6,7-dihydro-1H-imidazo[4,5-c]pyridin-5(4H)-yl)(6-(4-hydroxypiperidin-1-yl)pyrazolo[1,5-a]pyridin-3-yl)methanone]	≥ 5000
Cc1cccc2oc([C@@H]3c4nc[nH]c4CCN3C(=O)c3ncnn3C)nc12 [Example 901, (S)-(1-methyl-1H-1,2,4-triazol-5-yl)(4-(4-methylbenzo[d]oxazol-2-yl)-6,7-dihydro-1H-imidazo[4,5-c]pyridin-5(4H)-yl)methanone]	500 to 1000
Cc1cccc2oc([C@H]3c4nc[nH]c4CCN3C(=O)c3ncnn3C)nc12 [Example 902, (R)-(1-methyl-1H-1,2,4-triazol-5-yl)(4-(4-methylbenzo[d]oxazol-2-yl)-6,7-dihydro-1H-imidazo[4,5-c]pyridin-5(4H)-yl)methanone]	1000 to 5000
COc1cccc2oc([C@@H]3c4nc[nH]c4CCN3C(=O)c3ncnn3C)nc12 [Example 903, (S)-(4-(4-methoxybenzo[d]oxazol-2-yl)-6,7-dihydro-1H-imidazo[4,5-c]pyridin-5(4H)-yl)(1-methyl-1H-1,2,4-triazol-5-yl)methanone]	1000 to 5000
COc1cccc2oc([C@H]3c4nc[nH]c4CCN3C(=O)c3ncnn3C)nc12 [Example 904, (R)-(4-(4-methoxybenzo[d]oxazol-2-yl)-6,7-dihydro-1H-imidazo[4,5-c]pyridin-5(4H)-yl)(1-methyl-1H-1,2,4-triazol-5-yl)methanone]	≥ 5000
Cc1nc(C(=O)N2CCc3[nH]cnc3[C@H]2c2nc3cccc(C)c3o2)n(C)n1 [Example 907, (S)-(1,3-dimethyl-1H-1,2,4-triazol-5-yl)(4-(7-methylbenzo[d]oxazol-2-yl)-6,7-dihydro-1H-imidazo[4,5-c]pyridin-5(4H)-yl)methanone]	1000 to 5000
Cc1nc(C(=O)N2CCc3[nH]cnc3[C@@H]2c2nc3cccc(C)c3o2)n(C)n1 [Example 908, (R)-(1,3-dimethyl-1H-1,2,4-triazol-5-yl)(4-(7-methylbenzo[d]oxazol-2-yl)-6,7-dihydro-1H-imidazo[4,5-c]pyridin-5(4H)-yl)methanone]	1000 to 5000
COc1cccc2nc([C@@H]3c4nc[nH]c4CCN3C(=O)c3nc(C)nn3C)oc12 [Example 909, (S)-(1,3-dimethyl-1H-1,2,4-triazol-5-yl)(4-(7-methoxybenzo[d]oxazol-2-yl)-6,7-dihydro-1H-imidazo[4,5-c]pyridin-5(4H)-yl)methanone]	1000 to 5000
COc1cccc2nc([C@H]3c4nc[nH]c4CCN3C(=O)c3nc(C)nn3C)oc12 [Example 910, (R)-(1,3-dimethyl-1H-1,2,4-triazol-5-yl)(4-(7-methoxybenzo[d]oxazol-2-yl)-6,7-dihydro-1H-imidazo[4,5-c]pyridin-5(4H)-yl)methanone]	≥ 5000
O=C(CCc1nccs1)N1CCc2[nH]cnc2[C@H]1c1nc2ccccc2o1 [Example 913, (S)-1-(4-(benzo[d]oxazol-2-yl)-6,7-dihydro-1H-imidazo[4,5-c]pyridin-5(4H)-yl)-3-(thiazol-2-yl)propan-1-one]	500 to 1000
O=C(c1c(C(F)(F)F)nn2ccccc12)N1CCc2[nH]cnc2[C@H]1c1nc2cc(F)ccc2o1 [Example 915, (S)-(4-(5-fluorobenzo[d]oxazol-2-yl)-6,7-dihydro-1H-imidazo[4,5-c]pyridin-5(4H)-yl)(2-(trifluoromethyl)pyrazolo[1,5-a]pyridin-3-yl)methanone]	≤ 500
Cn1nccc1C(=O)N1Cc2[nH]cnc2[C@H]1c1nc2ccccc2o1 [Example 924, (S)-(4-(benzo[d]oxazol-2-yl)-4,6-dihydropyrrolo[3,4-d]imidazol-5(1H)-yl)(1-methyl-1H-pyrazol-5-yl)methanone]	1000 to 5000
O=C(c1cccnc1)N1Cc2[nH]cnc2[C@H]1c1nc2ccccc2o1 [Example 927, (S)-(4-(benzo[d]oxazol-2-yl)-4,6-dihydropyrrolo[3,4-d]imidazol-5(1H)-yl)(pyridin-3-yl)methanone]	≥ 5000
O=C(c1cnn2ccccc12)N1Cc2[nH]cnc2[C@H]1c1nc2ccccc2o1 [Example 929, (S)-(4-(benzo[d]oxazol-2-yl)-4,6-dihydropyrrolo[3,4-d]imidazol-5(1H)-yl)(pyrazolo[1,5-a]pyridin-3-yl)methanone]	1000 to 5000
Cn1cc(-c2nnc(C(=O)N3Cc4[nH]cnc4[C@H]3c3nc4ccccc4o3)o2)cn1 [Example 935, (S)-(4-(benzo[d]oxazol-2-yl)-4,6-dihydropyrrolo[3,4-d]imidazol-5(1H)-yl)(5-(1-methyl-1H-pyrazol-4-yl)-1,3,4-oxadiazol-2-yl)methanone]	≥ 5000
O=C(c1nnc(-c2ccccn2)o1)N1Cc2[nH]cnc2[C@H]1c1nc2ccccc2o1 [Example 937, (S)-(4-(benzo[d]oxazol-2-yl)-4,6-dihydropyrrolo[3,4-d]imidazol-5(1H)-yl)(5-(pyridin-2-yl)-1,3,4-oxadiazol-2-yl)methanone]	1000 to 5000
O=C(c1nnc(-c2ccccn2)o1)N1Cc2[nH]cnc2[C@@H]1c1nc2ccccc2o1 [Example 938, (R)-(4-(benzo[d]oxazol-2-yl)-4,6-dihydropyrrolo[3,4-d]imidazol-5(1H)-yl)(5-(pyridin-2-yl)-1,3,4-oxadiazol-2-yl)methanone]	1000 to 5000

— patent US20250171437A1 (Agios Pharmaceuticals,Inc., priority 2022, published 2025)
